pIC50: −log10 of the molar value. Read-outs that look alike come from different tables or passages of the source.
Target: T1, HDM2 (Homo sapiens, UniProt Q00987)
T1 construct: Thioredoxin (N); made in house; host or cells: E. coli strain BL21(DE3)Rosetta
Test: HDM2 FRET assay (inhibition of binding of FITC labeled p53-pocket peptide to HDM2)
Conditions: for pIC50: read-out: FRET IC50
Procedure, shortened: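 TR-FRET with 0.5 nM His-tagged recombinant HDM2, 3 nM FITC-labelled p53 peptide and 0.25 nM Tb-anti-His antibody in PBS, 0.01% BSA, 0.01% Tween-20, 0.1% DMSO. IC50 from em520/em495 ratio over 10-point dilutions, 4-parameter logistic fit.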

[1] = 0.5 nM HDM2 (residues 17 to 125), 3nM peptide, two hour incubation at room temperature

T1 sequence (Q00987 17-125): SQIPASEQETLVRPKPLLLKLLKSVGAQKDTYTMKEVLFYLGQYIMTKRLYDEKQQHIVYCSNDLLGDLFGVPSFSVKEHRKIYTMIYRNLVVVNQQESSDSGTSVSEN

SMILES: CC(C)c1ccnc(-c2nc3nc(-c4noc(=O)[nH]4)nc(N[C@H](C)C4CCC4)c3n2C[C@H]2CC[C@H](C)CC2)c1F [Example 15.7, 3-(6-((R)-1-cyclobutylethylamino)-8-(3-fluoro-4-isopropylpyridin-2-yl)-7-((trans-4-methylcyclohexyl)methyl)-7H-purin-2-yl)-1,2,4-oxadiazol-5(4H)-one]
- pIC50 [1]: 8.29

SMILES: C[C@@H](Nc1nc(-c2noc(=O)[nH]2)nc2nc(NC(CO)c3ccccc3)n(C[C@H]3CC[C@H](C)CC3)c12)C1CCC1 (single isomer, unassigned) [Example 11.121]
- pIC50 (Table 11): 7.40

SMILES: CC(C)C[C@H]1CCCCN1c1nc2nc(-c3noc(=O)[nH]3)nc(N[C@H](C)C3CCC3)c2n1C[C@H]1CC[C@H](C)CC1 [Example 11.83, 3-(6-{[(1R)-1-cyclobutylethyl]amino}-7-[(trans-4-methylcyclohexyl)methyl]-8-[(2R)-2-(2-methylpropyl)piperidin-1-yl]-7H-purin-2-yl)-1,2,4-oxadiazol-5(4H)-one]
- pIC50 (Table 11): 7.94

SMILES: C[C@@H](Nc1nc(-c2noc(=O)[nH]2)nc2nc(C3CC3)n(C[C@H]3CC[C@H](C)CC3)c12)C1CCC1 [Example 21.27, 3-(6-{[(1R)-1-cyclobutylethyl]amino}-8-cyclopropyl-7-[(trans-4-methylcyclohexyl)methyl]-7H-purin-2-yl)-1,2,4-oxadiazol-5(4H)-one]
- pIC50 (Table 21): 7.74

SMILES: Cc1nc(C(C)Nc2nc3nc(-c4noc(=O)[nH]4)nc(N[C@H](C)C4CCC4)c3n2C[C@H]2CC[C@H](C)CC2)cs1 (stereo partly drawn) [Example 11.86, 3-(6-{[(1R)-1-cyclobutylethyl]amino}-7-[(trans-4-methylcyclohexyl)methyl]-8-{[1-(2-methyl-1,3-thiazol-4-yl)ethyl]amino} -7H-purin-2-yl)-1,2,4-oxadiazol-5(2H)-one]
- pIC50 (Table 11): 8.47

SMILES: C[C@@H](Nc1nc(-c2noc(=O)[nH]2)nc2nc(N3CCOCC3(C)C)n(C[C@H]3CC[C@H](C)CC3)c12)C1CCC1 [Example 11.98, 3-(6-{[(1R)-1-cyclobutylethyl]amino}-8-(3,3-dimethylmorpholin-4-yl)-7-[(trans-4-methylcyclohexyl)methyl]-7H-purin-2-yl)-1,2,4-oxadiazol-5(4H)-one]
- pIC50 (Table 11): 8.60

SMILES: C[C@@H](Nc1nc(C(=O)O)nc2nc(N3CCCC[C@H]3c3ccccc3)n(Cc3ccc(C(F)(F)F)cc3)c12)C1CCC1 [Example 9.63, 6-{[(1R)-1-cyclobutylethyl]amino}-8-[(2S)-2-phenylpiperidin-1-yl]-7-[4-(trifluoromethyl)benzyl]-7H-purine-2-carboxylic acid]
- pIC50 (Table 9): 8.51

SMILES: C[C@@H](Nc1nc(-c2noc(=O)[nH]2)nc2nc(N3CCCOCC3)n(C[C@H]3CC[C@H](C)CC3)c12)C1CCC1 [Example 11.105, 3-[6-{[(1R)-1-cyclobutylethyl]amino}-7-[(trans-4-methylcyclohexyl)methyl]-8-(1,4-oxazepan-4-yl)-7H-purin-2-yl]-1,2,4-oxadiazol-5(2H)-one]
- pIC50 (Table 11): 7.37

SMILES: C[C@@H](Nc1nc(C(=O)O)nc2nc(N3CCCC3c3cccc(F)c3)n(C[C@H]3CC[C@H](C)CC3)c12)C1CCC1 (stereo partly drawn) [Example 11.28, 6-{[(1R)-1-cyclobutylethyl]amino}-8-[2-(3-fluorophenyl)pyrrolidin-1-yl]-7-[(trans-4-methylcyclohexyl)methyl]-7H-purine-2-carboxylic acid]
- pIC50 (Table 11): 8.82

SMILES: CC(C)c1ccnc(-c2nc3nc(C(=O)O)nc(N[C@H](C)C4CCC4)c3n2CC2CCC(C)(C)CC2)c1 [Example 18.8, (R)-6-((1-cyclobutylethyl)amino)-7-((4,4-dimethylcyclohexyl)methyl)-8-(4-isopropylpyridin-2-yl)-7H-purine-2-carboxylic acid]
- pIC50 (Table 18): 7.23

SMILES: Cc1cccc(-c2nc3nc(C(=O)O)nc(N(C)CCC(C)C)c3n2Cc2ccc(C(F)(F)F)cc2)c1 [Example 6.77, 6-[methyl(3-methylbutyl)amino]-8-(3-methylphenyl)-7-[4-(trifluoromethyl)benzyl]-7H-purine-2-carboxylic acid]
- inhibition at 1 µM (read-out: inh. at 1000 nM (FRET)): 36%

SMILES: Cc1cccc(-c2nc3nc(C(=O)O)nc(N(C)CC(C)(C)C)c3n2Cc2ccc(C(F)(F)F)cc2)c1 [Example 6.82, 6-[(2,2-dimethylpropyl)(methyl)amino]-8-(3-methylphenyl)-7-[4-(trifluoromethyl)benzyl]-7H-purine-2-carboxylic acid]
- pIC50 (Table 6): 6.05

SMILES: CC1CCCN(c2nc3nc(C(=O)O)nc(N[C@H](C)C4CCC4)c3n2C[C@H]2CC[C@H](C)CC2)C1C (stereo partly drawn) [Example 11.1, 6-(((R)-1-cyclobutylethyl)amino)-8-(2,3-dimethylpiperidin-1-yl)-7-((trans-4-methylcyclohexyl)methyl)-7H-purine-2-carboxylic acid]
- pIC50 (Table 11): 8.34

SMILES: C[C@@H](Nc1nc(-c2noc(=O)[nH]2)nc2nc(C3(c4ccc(F)cc4)CC3)n(C[C@H]3CC[C@H](C)CC3)c12)C1CCC1 [Example 22.30, 3-(6-{[(1R)-1-cyclobutylethyl]amino}-8-[1-(4-fluorophenyl)cyclopropyl] -7-[(trans-4-methylcyclohexyl)methyl] -7H-purin-2-yl)-1,2,4-oxadiazol-5(4H)-one]
- pIC50 (Table 22): 8.00

SMILES: CC(O)(c1nc2nc(-c3noc(=O)[nH]3)nc(-c3cccc(Cl)c3)c2n1C[C@H]1CC[C@H](C)CC1)C1CCOCC1 (mixture of isomers) [Example 23.4, 3-{6-(3-chlorophenyl)-8-[1-hydroxy-1-(tetrahydro-2H-pyran-4-yl)ethyl]-7-[(trans-4-methylcyclohexyl)methyl]-7H-purin-2-yl}-1,2,4-oxadiazol-5(4H)-one]
- pIC50 (Table 23): 7.72

SMILES: C[C@H]1CC[C@H](Cn2c(N3CCOC[C@H]3c3ccccc3)nc3nc(-c4noc(=O)[nH]4)nc(-c4cncc(Cl)c4)c32)CC1 [Example 16.26, 3-{6-(5-chloropyridin-3-yl)-7-[(trans-4-methylcyclohexyl)methyl]-8-[(3R)-3-phenylmorpholin-4-yl]-7H-purin-2-yl}-1,2,4-oxadiazol-5(4H)-one]
- pIC50 [1]: 9.29

SMILES: C[C@@H](Nc1nc(-c2noc(=O)[nH]2)nc2nc(C(C)(O)c3ccn(C)n3)n(C[C@H]3CC[C@H](C)CC3)c12)C1CCC1 (stereo partly drawn) [Example 22.55, 3-(6-{[(1R)-1-cyclobutylethyl]amino}-8-[1-hydroxy-1-(1-methyl-1H-pyrazol-3-yl)ethyl]-7-[(trans-4-methylcyclohexyl)methyl] -7H-purin-2-yl)-1,2,4-oxadiazol-5(2H)-one]
- pIC50 (Table 22): 7.64

SMILES: C[C@@H](Nc1nc(-c2noc(=O)[nH]2)nc2nc(C3=CCCC3)n(C[C@H]3CC[C@H](C)CC3)c12)C1CCC1 [Example 21.32, 3-(6-{[(1R)-1-cyclobutylethyl]amino}-8-cyclopent-1-en-1-yl-7-[(trans-4-methylcyclohexyl)methyl]-7H-purin-2-yl)-1,2,4-oxadiazol-5(4H)-one]
- pIC50 (Table 21): 8.31

SMILES: C[C@@H](Nc1nc(C(=O)O)nc2nc(C3CCCCC3c3ccccc3)n(Cc3ccc(C(F)(F)F)cc3)c12)C1CCC1 (single isomer, unassigned) [Example 21.2]
- pIC50 (Table 21): 8.63

SMILES: C[C@H]1CC[C@H](Cn2c(C(O)C3CCOCC3)nc3nc(-c4noc(=O)[nH]4)nc(-c4cccc(Cl)c4)c32)CC1 (mixture of isomers) [Example 23.2, 3-{6-(3-chlorophenyl)-8-[hydroxy(tetrahydro-2H-pyran-4-yl)methyl]-7-[(trans-4-methylcyclohexyl)methyl]-7H-purin-2-yl}-1,2,4-oxadiazol-5(4H)-one]
- pIC50 (Table 23): 7.29

SMILES: CC(C)c1ccnc(-c2nc3nc(CNS(C)(=O)=O)nc(N[C@H](C)C4CCC4)c3n2C[C@H]2CC[C@H](C)CC2)c1 [Example 12.9, N-[(6-{[(1R)-1-cyclobutylethyl]amino}-7-[(trans-4-methylcyclohexyl)methyl]-8-[4-(propan-2-yl)pyridin-2-yl]-7H-purin-2-yl)methyl]methanesulfonamide]
- pIC50 [1]: 6.43

SMILES: CC([C@H]1CC[C@H](C)CC1)n1c(N2CCOC[C@H]2C)nc2nc(-c3n[nH]c(=O)o3)nc(-c3cccc(Cl)c3)c21 (single isomer, unassigned) [Example 18.35]
- pIC50 (Table 18): 8.30

SMILES: C[C@@H](Nc1nc(-c2noc(=O)[nH]2)nc2nc(C3(O)CCC3)n(C[C@H]3CC[C@H](C)CC3)c12)C1CCC1 [Example 22.67, 3-(6-{[(1R)-1-cyclobutylethyl]amino}-8-(1-hydroxycyclobutyl)-7-[(trans-4-methylcyclohexyl)methyl] -7H-purin-2-yl)-1,2,4-oxadiazol-5(2H)-one]
- pIC50 (Table 22): 7.71

SMILES: CC(C)CN(C)c1nc2nc(C(=O)O)nc(N[C@H](C)C3CCC3)c2n1C[C@H]1CC[C@H](C)CC1 [Example 11.30, 6-{[(1R)-1-cyclobutylethyl]amino}-7-[(trans-4-methylcyclohexyl)methyl]-8-[methyl(2-methylpropyl)amino] -7H-purine-2-carboxylic acid]
- pIC50 (Table 11): 8.78

SMILES: CC(C)c1cc(-c2nc3nc(C(=O)O)nc(N[C@H](C)C4CCC4)c3n2C[C@H]2CC[C@H](C)CC2)ncc1F [Example 15.8, 6-(((R)-1-cyclobutylethyl)amino)-8-(5-fluoro-4-isopropylpyridin-2-yl)-7-((trans-4-methylcyclohexyl)methyl)-7H-purine-2-carboxylic acid]
- pIC50 [1]: 8.94

SMILES: C[C@@H](Nc1nc(-c2noc(=O)[nH]2)nc2nc(N(C)C3CCCCC3)n(Cc3ccc(C(F)(F)F)cc3)c12)C1CCC1 [Example 9.87, 3-(6-{[(1R)-1-cyclobutylethyl]amino}-8-[cyclohexyl(methyl)amino]-7-[4-(trifluoromethyl)benzyl]-7H-purin-2-yl)-1,2,4-oxadiazol-5(4H)-one]
- pIC50 (Table 9): 7.63
